# Assay results: patent publication US9789181B2, “PAN-DR binding polypeptides and uses thereof” (Epimmune Inc., priority 2009, dated 2017)
# Where no end group is shown, it is not given here.
# Experiments:
# HLA DRB1 *0802 = HLA DRB1 *0802 (Homo sapiens, UniProt P01903+P01911, A100R/A103L/A169T/F76Y/H45Y/I96F/K41T/L162R/M171V/P40S/Q125H/Q178H/Q39Y/Q99D/R218S/R42G/S66Y/V115G/W38E); assay: IC50nM to purified HLA | DRB1 *0802
# Procedure: (§1) Table printed on a drawing sheet, FIG. 1 (contd.)
# Head of the field: IC50nM to purified HLA | DRB1 *0802
# (§2) First copying reader's note: Continued from the preceding sheet of FIG. 1; decimal commas are used, the analog names give the substituted residues and positions in PADRE, and some values are printed in italics or bold and some SEQ ID NOs bold and underlined without a legend on this sheet.
# Where the first naming reader finds the target: head: IC50nM to purified HLA | DRB1 *0802
# HLA DRB1 *0404 = HLA DRB1 *0404 (Homo sapiens, UniProt P01903+P01911, A100R/A169T/F76Y/I96L/K127E/L162R/M171V/N62H/P40V/Q125Y/R42H/S133A/S149N/S66Y/V209L/W38E); assay: IC50nM to purified HLA | DRB1 *0404
# Procedure: as §1
# (§3) Head of the field: IC50nM to purified HLA | DRB1 *0404
# as §2
# (§4) Where the first naming reader finds the target: head: IC50nM to purified HLA | DRB1 *0404
# HLA DRB1 *0901 = HLA DRB1 *0901 (Homo sapiens, UniProt P01903+P01911, A100R/A103E/D57H/D86V/F55Y/F60I/F76Y/I96F/K127E/L162R/M171V/P40D/Q125H/Q99R/R33Q/R42F/S133A/S66N/T210M/V115G/W38K/Y107V/Y59G/Y89S); assay: IC50nM to purified HLA | DRB1 *0901
# Procedure: as §1
# (§5) Head of the field: IC50nM to purified HLA | DRB1 *0901
# as §2
# (§6) Where the first naming reader finds the target: head: IC50nM to purified HLA | DRB1 *0901
# HLA DRB5 *0101 = HLA DRB5 *0101 (Homo sapiens, UniProt P01903+Q30154); assay: IC50nM to purified HLA | DRB5 *0101
# Procedure: as §1
# (§7) Head of the field: IC50nM to purified HLA | DRB5 *0101
# as §2
# (§8) Where the first naming reader finds the target: head: IC50nM to purified HLA | DRB5 *0101
# HLA DRB1 *0301 = HLA DRB1 *0301 (Homo sapiens, UniProt P01903+P01911, A100K/A102G/A103R/A169T/F55Y/I96L/K41T/L162R/M171V/P40S/Q125H/Q178H/Q39Y/R42S/S66N/T106N/T262R/W38E/Y61H); assay: IC50nM to purified HLA | DRB1 *0301
# Procedure: as §1
# (§9) Head of the field: IC50nM to purified HLA | DRB1 *0301
# as §2
# (§10) Where the first naming reader finds the target: head: IC50nM to purified HLA | DRB1 *0301
# HLA DRB1 *1302 = HLA DRB1 *1302 (Homo sapiens, UniProt P01903+P01911, A100E/A169T/K41T/L162R/M171V/P40S/Q125H/Q178H/Q39Y/Q99D/R42S/S66N/T262R/V115G/W38E/Y61H); assay: IC50nM to purified HLA | DRB1 *1302
# Procedure: as §1
# (§11) Head of the field: IC50nM to purified HLA | DRB1 *1302
# as §2
# (§12) Where the first naming reader finds the target: head: IC50nM to purified HLA | DRB1 *1302
# HLA DRB1 *0401 = HLA DRB1 *0401 (Homo sapiens, UniProt P01903+P01911, A100K/A169T/F76Y/I96L/K127E/L162R/M171V/N62H/P40V/Q125Y/R42H/S133A/S149N/S66Y/V115G/V209L/W38E); assay: IC50nM to purified HLA | DRB1 *0401
# Procedure: as §1
# (§13) Head of the field: IC50nM to purified HLA | DRB1 *0401
# as §2
# (§14) Where the first naming reader finds the target: head: IC50nM to purified HLA | DRB1 *0401
# HLA DRB1 *1501 = HLA DRB1 *1501 (Homo sapiens, UniProt P01903+P01911); assay: IC50nM to purified HLA | DRB1 *1501
# Procedure: as §1
# (§15) Head of the field: IC50nM to purified HLA | DRB1 *1501
# as §2
# (§16) Where the first naming reader finds the target: head: IC50nM to purified HLA | DRB1 *1501
# HLA DRB1 *0701 = HLA DRB1 *0701 (Homo sapiens, UniProt P01903+P01911, A100R/A102G/A103Q/D57E/D86V/E43K/F76Y/K127E/L162R/M171V/P40G/Q125H/Q99D/R33Q/R42Y/R54Q/S133A/S66F/T210M/V115G/Y107V/Y59L/Y89S); assay: IC50nM to purified HLA | DRB1 *0701
# Procedure: as §1
# (§17) Head of the field: IC50nM to purified HLA | DRB1 *0701
# as §2
# (§18) Where the first naming reader finds the target: head: IC50nM to purified HLA | DRB1 *0701
# HLA DRB1 *0101 = HLA DRB1 *0101 (Homo sapiens, UniProt P01903+P01911, A100R/D57E/F55L/F60I/F76Y/I96L/L162R/M171V/P40L/Q125E/R42F/V115G/Y59C); assay: IC50nM to purified HLA | DRB1 *0101
# Procedure: as §1
# Head of the field: IC50nM to purified HLA | DRB1 *0101
# as §2
# Where the first naming reader finds the target: head: IC50nM to purified HLA | DRB1 *0101
# HLA DRB1 *0405 = HLA DRB1 *0405 (Homo sapiens, UniProt P01903+P01911, A100R/A169T/D86S/F76Y/I96L/K127E/L162R/M171V/N62H/P40V/Q125Y/R42H/S133A/S149N/S66Y/V115G/V209L/W38E); assay: IC50nM to purified HLA | DRB1 *0405
# Procedure: as §1
# Head of the field: IC50nM to purified HLA | DRB1 *0405
# as §2
# Where the first naming reader finds the target: head: IC50nM to purified HLA | DRB1 *0405
# HLA DRB1 *1101 = HLA DRB1 *1101 (Homo sapiens, UniProt P01903+P01911, A100R/A169T/A87E/I96F/K41T/L162R/M171V/P40S/Q125H/Q178H/Q39Y/Q99D/R42S/S66Y/T262R/V115G/W38E); assay: IC50nM to purified HLA | DRB1 *1101
# Procedure: as §1
# Head of the field: IC50nM to purified HLA | DRB1 *1101
# as §2
# Where the first naming reader finds the target: head: IC50nM to purified HLA | DRB1 *1101
# HLA DRB4 *0101 = HLA DRB4 *0101 (Homo sapiens, UniProt P01903+P13762, G164S); assay: IC50nM to purified HLA | DRB4 *0101
# Procedure: as §1
# (§19) Head of the field: IC50nM to purified HLA | DRB4 *0101
# as §2
# (§20) Where the first naming reader finds the target: head: IC50nM to purified HLA | DRB4 *0101
# purified HLA DRB1 *0301 = purified HLA DRB1 *0301 (Homo sapiens, UniProt P01903+P01911, A100K/A102G/A103R/A169T/F55Y/I96L/K41T/L162R/M171V/P40S/Q125H/Q178H/Q39Y/R42S/S66N/T106N/T262R/W38E/Y61H); assay: IC50nM to purified HLA | DRB1 *0301
# Procedure: (§21) Table printed on a drawing sheet, FIG. 1
# as §9
# (§22) First copying reader's note: The comma is the decimal sign and the point a thousands separator (e.g. 21.831); some values are printed bold or italic and some SEQ ID NOs underlined, with no legend on the sheet.
# as §10
# purified HLA DRB1 *0401 = purified HLA DRB1 *0401 (Homo sapiens, UniProt P01903+P01911, A100K/A169T/F76Y/I96L/K127E/L162R/M171V/N62H/P40V/Q125Y/R42H/S133A/S149N/S66Y/V115G/V209L/W38E); assay: IC50nM to purified HLA | DRB1 *0401
# Procedure: as §21, §13, §22, §14
# purified HLA DRB1 *0701 = purified HLA DRB1 *0701 (Homo sapiens, UniProt P01903+P01911, A100R/A102G/A103Q/D57E/D86V/E43K/F76Y/K127E/L162R/M171V/P40G/Q125H/Q99D/R33Q/R42Y/R54Q/S133A/S66F/T210M/V115G/Y107V/Y59L/Y89S); assay: IC50nM to purified HLA | DRB1 *0701
# Procedure: as §21, §17, §22, §18
# purified HLA DRB1 *1302 = purified HLA DRB1 *1302 (Homo sapiens, UniProt P01903+P01911, A100E/A169T/K41T/L162R/M171V/P40S/Q125H/Q178H/Q39Y/Q99D/R42S/S66N/T262R/V115G/W38E/Y61H); assay: IC50nM to purified HLA | DRB1 *1302
# Procedure: as §21, §11, §22, §12
# purified HLA DRB1 *0901 = purified HLA DRB1 *0901 (Homo sapiens, UniProt P01903+P01911, A100R/A103E/D57H/D86V/F55Y/F60I/F76Y/I96F/K127E/L162R/M171V/P40D/Q125H/Q99R/R33Q/R42F/S133A/S66N/T210M/V115G/W38K/Y107V/Y59G/Y89S); assay: IC50nM to purified HLA | DRB1 *0901
# Procedure: as §21, §5, §22, §6
# purified HLA DRB1 *1501 = purified HLA DRB1 *1501 (Homo sapiens, UniProt P01903+P01911); assay: IC50nM to purified HLA | DRB1 *1501
# Procedure: as §21, §15, §22, §16
# purified HLA DRB5 *0101 = purified HLA DRB5 *0101 (Homo sapiens, UniProt P01903+Q30154); assay: IC50nM to purified HLA | DRB5 *0101
# Procedure: as §21, §7, §22, §8
# purified HLA DRB4 *0101 = purified HLA DRB4 *0101 (Homo sapiens, UniProt P01903+P13762, G164S); assay: IC50nM to purified HLA | DRB4 *0101
# Procedure: as §21, §19, §22, §20
# purified HLA DRB1 *0404 = purified HLA DRB1 *0404 (Homo sapiens, UniProt P01903+P01911, A100R/A169T/F76Y/I96L/K127E/L162R/M171V/N62H/P40V/Q125Y/R42H/S133A/S149N/S66Y/V209L/W38E); assay: IC50nM to purified HLA | DRB1 *0404
# Procedure: as §21, §3, §22, §4
# Sequence of HLA DRB1 *0301 (P01903 26-254 limits assumed, other chains not shown): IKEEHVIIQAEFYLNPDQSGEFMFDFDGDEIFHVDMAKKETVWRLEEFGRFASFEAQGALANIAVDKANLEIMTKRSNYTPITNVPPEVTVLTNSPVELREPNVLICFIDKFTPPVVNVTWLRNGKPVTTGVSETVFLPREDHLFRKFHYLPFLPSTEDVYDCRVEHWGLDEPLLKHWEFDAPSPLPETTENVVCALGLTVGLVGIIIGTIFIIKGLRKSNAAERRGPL
# Sequence of HLA DRB1 *1302 (P01903 26-254 limits assumed, other chains not shown): as above
# Sequence of HLA DRB1 *1101 (P01903 26-254 limits assumed, other chains not shown): as above
# Sequence of purified HLA DRB4 *0101 (P01903 26-254 limits assumed): as the sequence (P01903 26-254 limits assumed, other chains not shown) above
# Sequence of purified HLA DRB4 *0101 (P13762 whole entry G164S): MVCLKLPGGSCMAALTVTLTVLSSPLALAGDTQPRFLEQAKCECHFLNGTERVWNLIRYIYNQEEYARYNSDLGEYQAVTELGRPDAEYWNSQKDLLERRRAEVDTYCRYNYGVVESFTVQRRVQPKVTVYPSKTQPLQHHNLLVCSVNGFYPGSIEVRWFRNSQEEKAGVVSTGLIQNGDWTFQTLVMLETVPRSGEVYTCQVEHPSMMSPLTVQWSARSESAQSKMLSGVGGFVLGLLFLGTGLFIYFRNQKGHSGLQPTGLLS
# Sequence of HLA DRB4 *0101 (P01903 26-254 limits assumed): as the sequence (P01903 26-254 limits assumed, other chains not shown) above
# Sequence of HLA DRB4 *0101 (P13762 whole entry G164S): as the sequence (P13762 whole entry G164S) above
# Sequence of purified HLA DRB1 *1302 (P01903 26-254 limits assumed, other chains not shown): as the sequence (P01903 26-254 limits assumed, other chains not shown) above
# Sequence of purified HLA DRB1 *0301 (P01903 26-254 limits assumed, other chains not shown): as above
Sequence,IC50 (HLA DRB1 *0802),IC50 (HLA DRB1 *0404),IC50 (HLA DRB1 *0901),IC50 (HLA DRB5 *0101),IC50 (HLA DRB1 *0301),IC50 (HLA DRB1 *1302),IC50 (HLA DRB1 *0401),IC50 (HLA DRB1 *1501),IC50 (HLA DRB1 *0701),IC50 (HLA DRB1 *0101),IC50 (HLA DRB1 *0405),IC50 (HLA DRB1 *1101),further results
AAADFVAANTLHAAA [SEQ ID NO: 44],44 nM,8.6 nM,82 nM,80 nM,731 nM,187 nM,6.6 nM,580 nM,196 nM,7.8 nM,,,
AAAEFVAAWTLHAAA [SEQ ID NO: 46],24 nM,4.1 nM,44 nM,48 nM,134 nM,1150 nM,3.1 nM,,97 nM,,27 nM,38 nM,
AAAEFVAAYTLHAAA [SEQ ID NO: 47],13 nM,3.2 nM,28 nM,52 nM,144 nM,1450 nM,2.3 nM,6.9 nM,161 nM,3.9 nM,17 nM,27 nM,IC50 (HLA DRB4 *0101): 448 nM
AAAFFVAAFTLHAAA [SEQ ID NO: 14],,,,,,,,,,,,,IC50 (purified HLA DRB1 *0301): 371 nM; IC50 (purified HLA DRB1 *0401): 2 nM; IC50 (purified HLA DRB1 *0701): 610 nM; IC50 (purified HLA DRB1 *1302): 219 µM; IC50 (purified HLA DRB1 *0901): 48 nM; IC50 (purified HLA DRB1 *1501): 25 nM; IC50 (purified HLA DRB5 *0101): 29 nM; IC50 (purified HLA DRB4 *0101): 129 nM; IC50 (purified HLA DRB1 *0404): 1.1 nM
